Experiments:
[1] = tested on: over 50 human tumour cell lines
[2] = tested on: 13 human tumour xenografts and 10 human tumour cell lines
[3] = mean over 13 human tumour xenografts and 10 human tumour cell lines

In the case of “[tris(1,10-phenantrolin)lanthanum(III)]trithiocyanate”, the “Cytostatic effectiveness (in words)” value ([1]; over 50 human tumour cell lines, 48-h) is reported as “Good effectiveness”, the “Activity relative to average of the panel” value ([1]; some melanoma and kidney cell carcinoma cell lines) is reported as “Above average activities” and the “Cytostatic activity (in words)” value ([2]; 13 human tumour xenografts and 10 human tumour cell lines) is reported as “good cytostatic activity”. The “Activity relative to average of the panel” value ([2]; mammary carcinoma cell lines MCF7, MDA468A, parvicellular bronchial carcinoma cell line DMS 114, one each of melanoma, ovarian, kidney cell and non-parvicellular bronchial carcinoma xenografts) was “Above average activities”, the “Mean IC50” value [2, 3] was 3.60 µg/mL and the “Mean IC90” value [2, 3] was 12.1 µg/mL. The Tumour type selectivity ([2]; prostate and colorectal carcinoma) was “selectivity for prostate and colorectal carcinoma”, the IC50 ([2]; read-out: Mean IC50, mean over 13 human tumour xenografts and 10 human tumour cell lines) was 4.21 µM and the IC90 ([2]; read-out: Mean IC90, mean over 13 human tumour xenografts and 10 human tumour cell lines) was 14.2 µM.
